Measurements: US12624068B2, “Exon skipping by peptide nucleic acid derivatives” (OliPass Corporation, priority 2016, dated 2026)
[C(1O2)] = modified PNA monomer acting as cytosine, C(pOq) type, 1O2; [A(5)] = modified PNA monomer acting as adenine, A(p) type, p=5; [G(6)] = modified PNA monomer acting as guanine, G(p) type, p=6; {Fethoc} = N-terminal Fethoc cap; {NH2} = C-terminal amide

Tests used:
[1] = tested on: rats with diabetes-induced peripheral neuropathic pain (DPNP); assay: Reversal of allodynia (von Frey) in rats with diabetes-induced peripheral neuropathic pain; type: in vivo, rat; details: 100 pmole/Kg subcutaneous in Days 11, 13, 15, 17 and 19
Procedure: “SCN-ASO 7”, “SCN-ASO 8”, “SCN-ASO 21”, “SCN-ASO 35”, “SCN-ASO 36” and “SCN-ASO 37” were evaluated for their ability to reverse the allodynia in rats with diabetes-induced peripheral neuropathic pain (DPNP). In this example, the six SCN9A ASOs targeting a total of five splice sites were evaluated for their ability to reverse the allodynia induced by diabetic neuropathy in rats.
[Induction of DPNP and Grouping] Diabetes was induced in rats by an intraperitoneal injection of streptozotocin at 60 mg/Kg in Day 0. In Day 10, rats with DPNP were randomly assigned to […] of negative control (vehicle only), “SCN-ASO 7” 100 pmole/Kg, “SCN-ASO 8” 100 pmole/Kg, “SCN-ASO 21” 100 pmole/Kg, “SCN-ASO 35” 100 pmole/Kg, “SCN-ASO 36” 100 pmole/Kg, and “SCN-ASO 37” 100 pmole/Kg. The animals were grouped based on the von Frey scores of individual animals in Day 10. (N=8-9 per group) Allodynia was scored using a set of microfilaments (Touch Test®) according to the “Up & Down” method. [J Neurosci. Methods vol 53(1), 55-63 (1994)]
[ASO Treatment and von Frey Scoring] ASO solutions for injection were prepared by serially diluting aqueous mother stock solutions of the SCN9A ASOs to 100 nM in PBS (phosphate buffered saline). Animals were subcutaneously administered with ASO at 1 mL/Kg in Days 11, 13, 15, 17 and 19. Von Frey scoring was carried out 2 hours post dose in Days 11, 13, 15, 17 and 19. Von Frey scoring was additionally performed in Days 21 and 23 in order to assess the duration of the therapeutic activity after the final dosing. Daily von Frey scores were evaluated for statistical significance by student's t-test against the negative control group (vehicle only, i.e., PBS).

mdx mice = assay: Histopathology by H&E staining of skeletal muscle in mdx mice; type: in vivo, mouse
Text: [Histopathology by H&E Staining] Muscular inflammation and degeneration are the hallmark of DMD symptoms. Skeletal muscle samples were subjected to histopathology evaluation by H&E staining. FIG. 43 provides a representative set of H&E staining images for the triceps by group and sampling time point.

full-length dystrophin = assay: IHC of skeletal muscles against full-length dystrophin in mdx mice; type: in vivo
Text: [IHC Evaluation of Skeletal Muscles against Full-length Dystrophin] In Weeks 7, 13 and 21, two animals per group were randomly selected and sacrificed to extract muscle tissues. In Week 30, 3 animals were sacrificed per group.
The muscle tissues sampled in Week 7 were subjected to IHC against the full-length dystrophin by cryosection. The muscle tissues sampled in Weeks 13, 21 and 30 were immunostained by paraffin block. IHC by paraffin block yielded images of better quality than IHC by cryosection.
Muscle samples were subjected to immunostaining in series with a primary antibody targeting the C-terminal of mouse dystrophin (Cat. Number sc-816, Santa Cruz) at 1:100 dilution, with a secondary anti-IgG antibody (Cat Number BA-1100, Vector) at 1:200 dilution, and then with Dylight 594-streptavidin (Cat Number SA-5594, Vector, CA, USA) at 1:200 dilution for red fluorescence tagging. The IHC images were captured on a Zeiss slide scanner (in Weeks 13, 21 and 30) or an Olympus fluorescence microscope (in Week 7). […]
The dystrophin IHC images were subjected to quantification for the full-length dystrophin expression by digitally scoring the intensity of red fluorescence in each individual IHC image using the “ImageJ” program (NIH). Individual fluorescence scores were combined by group and muscle type for statistical evaluation against the wild type negative control group.

[2] = tested on: mouse dystrophin pre-mRNA; assay: Dystrophin nested PCR (Method A) in muscles of mdx mice; type: in vivo
Procedure: “DMD-ASO 1” and “DMD-ASO 4” were evaluated for their ability to induce exon skipping in muscles of mdx mice by subcutaneous administration as follows. [ASO Treatment & Sampling Muscle Tissues] The injection solutions were prepared by diluting an aqueous mother stock solution of “DMD-ASO 1” or “DMD-ASO 4” in PBS to 500 nM. Male mdx mice were subcutaneously administered with vehicle only (negative control), “DMD-ASO 1” or “DMD-ASO 4” at 2 mL/Kg, 2× per day (BID) for 3 days. One day after the final dose, the animals were anesthetized with zoletil/rompun, and sacrificed to sample muscle tissues including the heart, diaphragm, gatrocnemius, quadriceps, and triceps. [RNA Extraction] Muscle samples were homogenized by grinding in a tube kept on ice, and subjected to total RNA extraction with 1 mL trizol reagent (Invitrogen) per ca 100 mg muscle tissue. [cDNA Synthesis by One-Step RT-PCR] 500 ng of RNA template was used in a 25 μL reverse transcription reaction using Super Script® One-Step RT-PCR kit with Platinum® Taq polymerase (Cat. Number 10928-042, Invitrogen) and a set of exon-specific primers [DMD-exon 21_forward: (5'→3') […] NO: 103); and DMD-exon 25_reverse: (5'→3') […] [Nested PCR Amplification] 1 μL of cDNA was further amplified in a 20 μL nested PCR (Cat. Number K2612, Bioneer) reaction against a set of primers [DMD-exon 22n_forward: (5'→3') […] NO: 105); and DMD-exon 25n_reverse: (5'→3') […] [Identification of Exon Skipping Product] The skipping of exon 23 was detected only in the animals treated with “DMD-ASO 1” and “DMD-ASO 4”. […] Mdx mice subcutaneously received “DMD-ASO 1” at 0 (negative control) or 10 pmole/Kg, 2× per day for 5 days. (2 animals per group) One day after the final dose, the animals were sacrificed for tissue sampling. The triceps samples were evaluated for the skipping of exon 23 according to the nested RT-PCR method described in “DMD Example 1”.

[3] = tested on: mouse dystrophin pre-mRNA; assay: Dystrophin nested PCR (Method B) in muscles of mdx mice; type: in vivo; details: skeletal muscles sampled in Week 7
Procedure: The RNA samples obtained in “DMD Example 1” were subjected to a one-step cDNA synthesis using a set of exon-specific primers of [DMD-exon 20_forward: (5'→3') […] NO: 107); and DMD-exon 26_reverse: (5'→3') […] NO: 108)]. The cDNA samples were then analyzed by nested PCR against another set of exon-specific primers of [DMD-exon 20n_forward: (5'→3') […] NO: 109); and DMD-exon 26n_reverse: (5'→3') […] NO: 110)]. [Nested PCR for Exon Skipping (Method B)] Muscle samples were homogenized by grinding in a tube kept on ice, and subjected to total RNA extraction with 1 mL trizol reagent (Invitrogen) per ca 100 mg muscle tissue. The total RNAs were evaluated for exon skipping by nested PCR as described in “DMD Example 2”.

For “Fethoc-AC(1O2)T-TA(5)C-G(6)CA-A(5)AA(5)-AC(1O2)A-A(5)-NH2 (ACTTACGCAAAAACAA; all peptide nucleic acid (PNA), [C(1O2)] at 2, 14, [A(5)] at 5, 10, 12, 16, [G(6)] at 7, 5' {Fethoc}, 3' {NH2}; peptide nucleic acid written N to C) [SCN-ASO 7]”, the “maximum therapeutic efficacy based on the von Frey scores in Day 19” value [1] was about 76%.
With “Fethoc-A(5)GA-G(6)CC(1O2)-TCA-A(5)AA(5)-T-NH2 (antisense AGAGCCTCAAAAT; Fethoc N-cap, C-terminal amide, chemistry not fully specified) [DMD-ASO 1]” the “muscular degeneration and inflammation (H&E)” value (mdx mice; chronic 200 pmole/Kg) was “reversed”, the “severity of the histopathology findings (H&E)” value (mdx mice; chronic 10 and 50 pmole/Kg) was “weaker than the severity in the mdx negative control, but stronger than that in the 200 pmole/Kg group” and the “in vivo potency relative to the PMO ASO eteplirsen (30 mg/Kg per week)” value (full-length dystrophin; 200 pmole/Kg corresponds to ca 1 μg/Kg, different species and exon) was ~30,000 times. The “full-length dystrophin expression relative to the WT negative control group (IHC)” value (full-length dystrophin; mdx mice, 200 pmole/Kg 2× per week, Week 30) was over 80%, the “skipping of dystrophin exon 23 (nested PCR Method A)” value ([2]; subcutaneous 10 pmole/Kg, 2× per day for 5 days, triceps) was “induced the skipping of exon 23” and the “skipping of dystrophin exon 23 (nested PCR Method A)” value ([2]; subcutaneous 1,000 pmole/Kg BID for 3 days, quadriceps and gastrocnemius) was “detected”. The “in-frame PCR products of Δexons 21-23 and Δexons 21-24 (nested PCR Method B)” value [3] was “detected in muscle samples of the ASO treatment groups”.
